Data on 35 compounds can be found in patent publication US8557796B2, “Substituted 1-oxa-2,8-diaza-spiro [4,5] dec-2-ene derivatives and related treatment methods” (Gruenenthal GmbH, priority 2001, dated 2013).

In this assay the target is T1, NA transporter (Rattus norvegicus, UniProt Q9WTR4).
T1 construct: synaptosomes from rat brain regions were freshly isolated; from tissue; host or cells: P2 synaptosome fraction from hypothalamus of male rat brain
The experiment in a line: Noradrenalin uptake inhibition (NA-uptake) in synaptosomes. In kind it is biochemical. To be noted: rat hypothalamus synaptosomes. From the text:
Tests on Noradrenalin Uptake Inhibition (NA-Uptake Inhibition)
In order to be able to carry out these in vitro studies, synaptosomes from rat brain regions were freshly isolated.

T1 sequence (Q9WTR4 1-597): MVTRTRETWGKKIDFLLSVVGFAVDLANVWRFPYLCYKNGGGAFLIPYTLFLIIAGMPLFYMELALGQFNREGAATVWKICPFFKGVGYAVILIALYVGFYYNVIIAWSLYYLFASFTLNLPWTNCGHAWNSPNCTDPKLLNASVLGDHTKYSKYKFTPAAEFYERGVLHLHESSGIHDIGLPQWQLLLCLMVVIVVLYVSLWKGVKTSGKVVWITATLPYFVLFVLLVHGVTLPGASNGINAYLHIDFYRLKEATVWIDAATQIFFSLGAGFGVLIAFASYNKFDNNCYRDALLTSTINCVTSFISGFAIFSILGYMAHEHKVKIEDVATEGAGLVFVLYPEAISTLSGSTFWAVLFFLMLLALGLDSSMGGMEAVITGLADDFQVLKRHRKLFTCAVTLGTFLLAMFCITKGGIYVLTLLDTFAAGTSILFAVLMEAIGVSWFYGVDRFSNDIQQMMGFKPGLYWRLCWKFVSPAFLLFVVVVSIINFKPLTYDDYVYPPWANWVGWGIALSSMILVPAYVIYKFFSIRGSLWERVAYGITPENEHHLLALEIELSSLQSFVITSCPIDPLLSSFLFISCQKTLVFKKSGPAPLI

One may read the inhibition as the drop in the measured response relative to a control, in per cent. Read a high inhibition as strong suppression. Compound `O=C(NCc1cccs1)C1=NOC2(CCN(C(=O)COc3cccc(Cl)c3)CC2)C1` [Example 96, 8-[2-(3-chloro-phenoxy)-acetyl]-1-oxa-2,8-diaza-spiro[4,5]dec-2-ene-3-carboxylic acid (thiophen-2-ylmethyl)-amide] registered an inhibition at 10 µM of 49%.

`O=C(NCCCc1ccccc1)C1=NOC2(CCN(S(=O)(=O)c3ccc(F)cc3)CC2)C1` [Example 193, 8-(4-fluoro-benzenesulphonyl)-1-oxa-2,8-diaza-spiro[4,5]dec-2-ene-3-carboxylic acid (3-phenyl-propyl)-amide] yielded an inhibition at 10 µM of 47%.

Consider `O=C(NCC1CCCO1)C1=NOC2(CCN(C(=O)c3ccc(F)cc3F)CC2)C1` (centres unmarked) [Example 112], for which the “NA-uptake, 10 μM, % inhibition” value was 45%.

In turn, `CCOC(=O)C1CCCCN1C(=O)C1=NOC2(CCN(C(=O)c3cc(C(C)(C)C)oc3C)CC2)C1` (centres unmarked) [Example 179, 1-[8-(5-tert-butyl-2-methyl-furan-3-carbonyl)-1-oxa-2,8-diaza-spiro[4,5]dec-2-ene-3-carbonyl]-piperidine-2-carboxylic acid ethyl ester] registered an inhibition at 10 µM of 49%.

In turn, `CCSCCNC(=O)C1=NOC2(CCN(C(=O)c3cc(C(C)(C)C)nn3C)CC2)C1` [Example 185, 8-(5-tert-butyl-2-methyl-2H-pyrazole-3-carbonyl)-1-oxa-2,8-diaza-spiro[4,5]dec-2-ene-3-carboxylic acid (2-ethylsulphanyl-ethyl)-amide] displayed an inhibition at 10 µM of 45%.

Consider `COC(=O)c1ccccc1S(=O)(=O)N1CCC2(CC1)CC(C(=O)NCC(C)C)=NO2` [Example 138, 2-(3-isobutylcarbamoyl-1-oxa-2,8-diaza-spiro[4,5]dec-2-ene-8-sulphonyl)-benzoic acid methyl ester], for which the inhibition at 10 µM is 49%.

On to `O=C(NCc1cccs1)C1=NOC2(CCN(C(=O)C=Cc3ccccc3)CC2)C1` [Example 106], for which the “NA-uptake, 10 μM, % inhibition” value stood at 47%.

For the compound `Cc1onc(-c2c(F)cccc2Cl)c1C(=O)N1CCC2(CC1)CC(C(=O)NCc1ccccc1)=NO2` [Example 177, 8-[3-(2-chloro-6-fluorophenyl)-5-methyl-isoxazole-4-carbonyl]-1-oxa-2,8-diaza-spiro [4,5]dec-2-ene-3-carboxylic acid benzylamide], the inhibition at 10 µM was 47%.

In the case of `O=C(NCc1cccs1)C1=NOC2(CCN(C(=O)c3cccc4ccccc34)CC2)C1` [Example 192, 8-(naphthalene-1-carbonyl)-1-oxa-2,8-diaza-spiro[4,5]dec-2-ene-3-carboxylic acid (thiophen-2-ylmethyl)-amide], the inhibition at 10 µM came to 41%.

In the case of `COC(=O)C(Cc1ccc(Cl)cc1)NC(=O)C1=NOC2(CCN(S(=O)(=O)c3ccc(OC)cc3)CC2)C1` (centres unmarked) [Example 200], the “NA-uptake, 10 μM, % inhibition” value is listed as 43%.

Compound `Cc1ccc(S(=O)(=O)N2CCC3(CC2)CC(C(=O)NC2CC2c2ccccc2)=NO3)cc1` (centres unmarked) [Example 75, 8-(toluene-4-sulphonyl)-1-oxa-2,8-diaza-spiro[4,5]dec-2-ene-3-carboxylic acid (2-phenyl-cyclopropyl)-amide] came in with an inhibition at 10 µM of 65%.

Consider `CCOC(=O)C1CCCCN1C(=O)C1=NOC2(CCN(S(=O)(=O)c3ccc(Cl)s3)CC2)C1` (centres unmarked) [Example 155, 1-[8-(5-chloro-thiophene-2-sulphonyl)-1-oxa-2,8-diaza-spiro[4,5]dec-2-ene-3-carbonyl]-piperidine-2-carboxylic acid ethyl ester], for which at 10 µM the inhibition was 41%.

`CCSCCNC(=O)C1=NOC2(CCN(S(=O)(=O)CC34CCC(CC3=O)C4(C)C)CC2)C1` (centres unmarked) [Example 111, 8-(7,7-dimethyl-2-oxo-bicyclo[2.2.1]hept-1-ylmethane-sulphonyl)-1-oxa-2,8-diaza-spiro[4,5]dec-2-ene-3-carboxylic acid (2-ethylsulphanyl-ethyl)-amide] returned an inhibition at 10 µM of 40%.

In turn, `COc1ccc(S(=O)(=O)N2CCC3(CC2)CC(C(=O)NC2CC2c2ccccc2)=NO3)cc1` (centres unmarked) [Example 182, 8-(4-methoxy-benzenesulphonyl)-1-oxa-2,8-diaza-spiro[4,5]dec-2-ene-3-carboxylic acid (2-phenyl-cyclopropyl)-amide] had an inhibition at 10 µM of 73%.

As for `O=C(NCC1CC1)C1=NOC2(CCN(C(=O)c3cc(C(F)(F)F)ccc3Cl)CC2)C1` [Example 120, 8-(2-chloro-5-trifluoromethyl-benzoyl)-1-oxa-2,8-diaza-spiro(4,5]dec-2-ene-3-carboxylic acid cyclopropylmethyl-amide], at 10 µM the inhibition was 40%.

`O=C(NCc1cccs1)C1=NOC2(CCN(C(=O)c3cccc(Cl)c3)CC2)C1` [Example 208]: the “NA-uptake, 10 μM, % inhibition” value turned out to be 52%.

As for `O=C(C1=NOC2(CCN(S(=O)(=O)c3ccc(OC(F)(F)F)cc3)CC2)C1)N1CCN(CCCc2ccccc2)CC1` [Example 176, [4-(3-phenyl-propyl)-piperazin-l-yl]-[8-(4-trifluoromethoxy-benzenesulphonyl)-1-oxa-2,8-diaza-spiro [4,5]dec-2-en-3-yl]-methanone], the “NA-uptake, 10 μM, % inhibition” value was 52%.

In the case of `O=C(NCc1cccs1)C1=NOC2(CCN(C(=O)c3ccc(Br)cc3)CC2)C1` [Example 141], the “NA-uptake, 10 μM, % inhibition” value turned out to be 61%.

`O=C(C1=NOC2(CCN(S(=O)(=O)c3cccc(C(F)(F)F)c3)CC2)C1)N1CCN(c2cc(C(F)(F)F)ccn2)CC1` [Example 119]: the “NA-uptake, 10 μM, % inhibition” value is 43%.

For the compound `CC(Oc1ccccc1)C(=O)N1CCC2(CC1)CC(C(=O)NCC1CC1)=NO2` (centres unmarked) [Example 123, 8-(2-phenoxy-propionyl)-1-oxa-2,8-diaza-spiro[4,5]dec-2-ene-3-carboxylic acid cyclopropylmethyl-amide], the inhibition at 10 µM worked out at 42%.

For `O=C(NCc1ccccc1F)C1=NOC2(CCN(S(=O)(=O)c3ccc(F)cc3)CC2)C1` [Example 207, 8-(4-fluoro-benzenesulphonyl)-1-oxa-2,8-diaza-spiro[4,5]dec-2-ene-3-carboxylic acid 2 fluorobenzylamide], the inhibition at 10 µM was 50%.

For `O=C(NCCc1ccccc1)C1=NOC2(CCN(S(=O)(=O)Cc3ccccc3)CC2)C1` [Example 12, 8-phenylmethanesulphonyl-1-oxa-2,8-diaza-spiro[4,5]dec-2-ene-3-carboxylic acid phenethyl-amide], the inhibition at 10 µM turned out to be 54%.

For `O=C(NCCc1ccc(F)cc1)C1=NOC2(CCN(S(=O)(=O)c3ccc(OC(F)(F)F)cc3)CC2)C1` [Example 129, 8-(4-trifluoromethoxy-benzenesulphonyl)-1-oxa-2,8-diaza-spiro[4,5]dec-2-ene-3-carboxylic acid [2-(4-fluorophenyl)-ethyl]-amide], 10 µM produced 43% inhibition.

`CN(C)S(=O)(=O)N1CCC2(CC1)CC(C(=O)NCCc1ccccc1)=NO2` [Example 7, 8-dimethylsulphamoyl-1-oxa-2,8-diaza-spiro[4,5]dec-2-ene-3-carboxylic acid phenethyl-amide] yielded an inhibition at 10 µM of 50%.

As for `O=C(NCc1ccccc1)C1=NOC2(CCN(C(=O)c3ccc(Br)cc3)CC2)C1` [Example 212, 8-(4-bromo-benzoyl)-1-oxa-2,8-diaza-spiro[4,5]dec-2-ene-3-carboxylic acid benzylamide], the inhibition at 10 µM turned out to be 55%.

Turning to `O=C(NCc1ccc2c(c1)OCO2)C1=NOC2(CCN(S(=O)(=O)c3ccc(Cl)s3)CC2)C1` [Example 30, 8-(5-chloro-thiophene-2-sulphonyl)-1-oxa-2,8-diaza-spiro[4,5]dec-2-ene-3-carboxylic acid (benzo[1,3]dioxol-5-ylmethyl)-amide], testing at 10 µM gave an inhibition of 48%.

Consider `CSc1ncccc1C(=O)N1CCC2(CC1)CC(C(=O)NCC(C)C)=NO2` [Example 125, 8-(2-methylsulphanyl-pyridine-3-carbonyl)-1-oxa-2,8-diaza-spiro[4,5]dec-2-ene-3-carboxylic acid isobutyl-amide], for which 10 µM produced 40% inhibition.

Regarding `O=C(NC1CCCC1OCc1ccccc1)C1=NOC2(CCN(S(=O)(=O)c3ccc(Cl)s3)CC2)C1` (centres unmarked) [Example 191], the “NA-uptake, 10 μM, % inhibition” value was found to be 74%.

The compound `Cc1ccc(C(C)NC(=O)C2=NOC3(CCN(S(=O)(=O)c4cccs4)CC3)C2)cc1` (centres unmarked) [Example 23, 8-(thiophene-2-sulphonyl)-1-oxa-2,8-diaza-spiro[4,5]dec-2-ene-3-carboxylic acid (1-p-tolyl-ethyl)-amide] yielded an inhibition at 10 µM of 49%.

Regarding `Cc1ccc(F)c(C(=O)N2CCC3(CC2)CC(C(=O)NCc2cccs2)=NO3)c1F` [Example 170, 8-(2,6-difluoro-3-methyl-benzoyl)-1-oxa-2,8-diaza-spiro[4,5]dec-2-ene-3-carboxylic acid (thiophen-2-ylmethyl)-amide], the inhibition at 10 µM stood at 43%.

`O=C(C1=NOC2(CCN(S(=O)(=O)c3ccc(F)cc3)CC2)C1)N1CCN(C2CCCCCC2)CC1` [Example 218]: the “NA-uptake, 10 μM, % inhibition” value was found to be 44%.

Turning to `N#CCCN(CCc1ccccn1)C(=O)C1=NOC2(CCN(S(=O)(=O)c3ccc(F)cc3)CC2)C1` [Example 167, 8-(4-fluoro-benzenesulphonyl)-1-oxa-2,8-diaza-spiro[4,5]dec-2-ene-3-carboxylic acid (2-cyano-ethyl)-(2-pyridin-2-yl-ethyl)-amide], testing at 10 µM gave an inhibition of 63%.

For `O=C(NCC1CC1)C1=NOC2(CCN(C(=O)c3ccc(C(F)(F)F)c(F)c3)CC2)C1` [Example 110, 8-(3-fluoro-4-trifluoromethyl-benzoyl)-1-oxa-2,8-diaza-spiro[4,5]dec-2-ene-3-carboxylic acid cyclopropylmethyl-amide], at 10 µM the inhibition was 45%.

Compound `Cc1oc(C(C)(C)C)cc1C(=O)N1CCC2(CC1)CC(C(=O)NCC(C)C)=NO2` [Example 105, 8-(5-tert-butyl-2-methyl-furan-3-carbonyl)-1-oxa-2,8-diaza-spiro[4,5]dec-2-ene-3-carboxylic acid isobutyl-amide] yielded an inhibition at 10 µM of 53%.

With `CN(C)CCNC(=O)C1=NOC2(CCN(S(=O)(=O)c3ccccc3)CC2)C1` [Example 13, 8-benzenesulphonyl-1-oxa-2,8-diaza-spiro[4,5]dec-2-ene-3-carboxylic acid (2-dimethylamino-ethyl)-amide], at 10 µM the inhibition was 43%.
